The record followed here is ChEMBL document CHEMBL1201862, “PubChem BioAssay data set” (2004).

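Results reflect a 48-hour exposure of cells in 96-well plates to compound at five concentrations. GI50 is the concentration that inhibits growth by half.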 Calls of active or inactive are those of the source. Cut-off read from the data, not from the text of the source: active = GI50 up to about 1.1 µM and inactive = higher. A value given as a limit tells only on which side of the number the result lay.

Test systems include A549; ACHN; CAKI-1; CCRF-CEM; DU-145; EKVX; HCC 2998; Hs-578T; K562; M14; MDA-MB-231; Malme-3M; NCI-H226; NCI-H522; NCI/ADR-RES; OVCAR-8; SF-295; SN12C; SNB-75; A498.
What all share (experiment): inhibition of tumour cell growth, NCI panel, 48 h

`NC(=S)NS(=O)(=O)c1ccc(Cl)cc1Cl`: the GI50 in the test with A549, in the test with ACHN, in the test on CAKI-1, in the test on CCRF-CEM, in the test on DU-145 and with EKVX was > 100 µM (inactive) throughout. Also, the GI50 in the test on HCC 2998, in the test with Hs-578T, with K562, in the test on M14, with MDA-MB-231 and in the test on Malme-3M was > 100 µM (inactive) throughout. Also, the GI50 in the test with NCI-H226, in the test on NCI-H522, in the test on NCI/ADR-RES, in the test with OVCAR-8, in the test with SF-295 and in the test on SN12C was > 100 µM (inactive) in each case. In addition, the GI50 in the test with SNB-75 was > 100 µM (inactive).

Consider `OCC1OC(OCC(O)C(O)C(O)C(/C=N/Nc2ccccc2)=N/Nc2ccccc2)C(O)C(O)C1O` (centres undefined), for which the GI50 in the test on A549 is > 100 µM (inactive); in the test on ACHN it was 51.9 µM (inactive); in the test with CAKI-1, 34.4 µM (inactive); with CCRF-CEM, > 100 µM (inactive); in the test on DU-145, > 100 µM (inactive); in the test with EKVX it was > 100 µM (inactive). For the same molecule, the GI50 is > 100 µM (inactive) in the test with HCC 2998; > 100 µM (inactive) with Hs-578T; > 100 µM (inactive) in the test with M14; > 100 µM (inactive) in the test on MDA-MB-231; 85.5 µM (inactive) with Malme-3M; > 100 µM (inactive) in the test with NCI/ADR-RES. Further, the GI50 in the test on OVCAR-8 is > 100 µM (inactive); with SF-295, 78.9 µM (inactive); in the test on SN12C, > 100 µM (inactive); in the test with SNB-75, > 100 µM (inactive).

For the molecule `CN1CC(c2ccccc2)N(CCCCN2CC(c3ccccc3)N(C)CC2c2ccccc2)CC1c1ccccc1` (centres undefined), the GI50 with A498 is 36 µM (inactive); in the test with A549, 33.4 µM (inactive); with ACHN, > 100 µM (inactive); in the test on CAKI-1, > 100 µM (inactive); in the test with CCRF-CEM it was 20.9 µM (inactive); in the test on DU-145, 36.2 µM (inactive). Besides, the GI50 with EKVX is 59 µM (inactive); in the test with HCC 2998, 24.4 µM (inactive); in the test with Hs-578T it was 73.1 µM (inactive); with K562, 19.3 µM (inactive); in the test on M14, 25.9 µM (inactive); in the test on MDA-MB-231, 58.7 µM (inactive). For the same molecule, the GI50 in the test on Malme-3M is 31.7 µM (inactive); in the test with NCI-H226 it was 95.7 µM (inactive); with NCI/ADR-RES it was 53.8 µM (inactive); in the test with OVCAR-8 it was 44.3 µM (inactive); in the test on SF-295, 34.8 µM (inactive); with SN12C, 46.5 µM (inactive). Moreover, the GI50 in the test on SNB-75 was 29.4 µM (inactive).

In the case of `C[C@H]1C(=O)O[C@@H]2CCN3CC=C(COC(=O)[C@](C)(O)[C@@]1(C)O)[C@H]23`, the GI50 in the test with A498, in the test on A549, in the test with ACHN, in the test on CAKI-1, in the test with CCRF-CEM and with DU-145 was > 100 µM (inactive) throughout. Further, the GI50 with EKVX, in the test on HCC 2998, with Hs-578T, in the test with K562, in the test on M14 and in the test with MDA-MB-231 was > 100 µM (inactive) throughout. The GI50 in the test on NCI-H226, in the test with NCI-H522, with NCI/ADR-RES, with OVCAR-8, with SF-295 and in the test with SN12C was > 100 µM (inactive) throughout. Further, the GI50 in the test on SNB-75 is > 100 µM (inactive).

As to `COC(=O)C1C(C(=O)OC)C1(Br)CBr` (centres undefined), the GI50 in the test on A498 was > 100 µM (inactive); with A549 it was > 100 µM (inactive); in the test with ACHN it was 25.8 µM (inactive); in the test on CAKI-1, 17.8 µM (inactive); in the test with DU-145 it was > 100 µM (inactive); in the test with EKVX it was 25.1 µM (inactive). In addition, the GI50 with HCC 2998 was > 100 µM (inactive); in the test on Hs-578T, 89.1 µM (inactive); in the test with M14 it was 31.5 µM (inactive); in the test on MDA-MB-231, 87.5 µM (inactive); with NCI-H226, > 100 µM (inactive); in the test with NCI-H522 it was 3.54 µM (inactive). Also, the GI50 is > 100 µM (inactive) in the test on NCI/ADR-RES; 32.5 µM (inactive) in the test on OVCAR-8; > 100 µM (inactive) with SF-295; 27.5 µM (inactive) in the test on SN12C; > 100 µM (inactive) in the test with SNB-75.

`O=C1c2ccccc2C(=O)c2c(OCCOCCO)cccc21`: the GI50 is > 100 µM (inactive) in the test on A549; 43.9 µM (inactive) in the test with ACHN; 21.9 µM (inactive) in the test on CAKI-1; > 100 µM (inactive) in the test with DU-145; > 100 µM (inactive) with EKVX; 20.5 µM (inactive) in the test with Hs-578T. The GI50 with K562 is > 100 µM (inactive); in the test with M14 it was > 100 µM (inactive); in the test with MDA-MB-231, 0.935 µM (active); in the test with Malme-3M, 74.3 µM (inactive); in the test on NCI-H522, 52.6 µM (inactive); in the test with NCI/ADR-RES, > 100 µM (inactive). Moreover, the GI50 in the test with OVCAR-8 is 70.1 µM (inactive); in the test with SF-295 it was 96.6 µM (inactive); with SN12C, 0.714 µM (active); in the test on SNB-75, > 100 µM (inactive).

Take `COCO[C@@H]1C[C@H]2C(O)Nc3ccccc3C(=O)N2C1` (some centres undefined): the GI50 in the test with A498, in the test with A549, in the test with ACHN, in the test on CAKI-1, in the test on CCRF-CEM and in the test with DU-145 was > 100 µM (inactive) each time. Besides, the GI50 in the test on EKVX, with HCC 2998, with Hs-578T, in the test on K562, in the test on M14 and in the test with MDA-MB-231 was > 100 µM (inactive) throughout. The GI50 with NCI-H226, in the test on NCI/ADR-RES, with OVCAR-8, with SF-295 and in the test with SNB-75 was > 100 µM (inactive) in each case.

Turning to `C=C(Nc1ccc([N+](=O)[O-])cc1[N+](=O)[O-])c1c/c(=N\NC(N)=S)c2ccccc2o1`, the GI50 is > 100 µM (inactive) in the test with A549; 89.5 µM (inactive) with ACHN; > 100 µM (inactive) in the test with CAKI-1; 41.9 µM (inactive) in the test on CCRF-CEM; > 100 µM (inactive) in the test on DU-145; 68.7 µM (inactive) in the test with EKVX. Moreover, the GI50 was 95.9 µM (inactive) with HCC 2998; > 100 µM (inactive) in the test with Hs-578T; > 100 µM (inactive) in the test with M14; 26.8 µM (inactive) in the test on MDA-MB-231; 28.2 µM (inactive) in the test on NCI-H226; > 100 µM (inactive) in the test with NCI-H522. Further, the GI50 is 40.9 µM (inactive) with NCI/ADR-RES; 41.7 µM (inactive) in the test with OVCAR-8; 39.5 µM (inactive) with SF-295; 47.6 µM (inactive) in the test with SN12C; 74.8 µM (inactive) in the test on SNB-75.

Consider `COc1ccc(OC)c2c1C(=O)C(Cl)=C(N1CCN(CCOCCO)CC1)C2=O`, for which the GI50 in the test on A498 was 16.9 µM (inactive); with A549, 20.5 µM (inactive); in the test on ACHN, 16.6 µM (inactive); in the test with CCRF-CEM, 2.72 µM (inactive); in the test with DU-145, 18.6 µM (inactive); in the test with EKVX, 18.9 µM (inactive). For the same molecule, the GI50 in the test on HCC 2998 was 12.4 µM (inactive); in the test with Hs-578T, 16.1 µM (inactive); in the test with K562, 1.91 µM (inactive); in the test on M14, 17.2 µM (inactive); in the test with MDA-MB-231, 13.9 µM (inactive); in the test with Malme-3M it was 19.8 µM (inactive). Further, the GI50 in the test with NCI-H226 is 16.7 µM (inactive); in the test on NCI-H522 it was 4.3 µM (inactive); with NCI/ADR-RES, 26.5 µM (inactive); with OVCAR-8, 16.6 µM (inactive); in the test with SF-295 it was 18.7 µM (inactive); in the test with SN12C, 12.4 µM (inactive). For the same molecule, the GI50 with SNB-75 is 15.9 µM (inactive).

`C/C1=C\[C@@H](C)C[C@@H](C)OC(=O)[C@@H](C)NC(=O)[C@H](Cc2ccc(O)c(Br)c2)N(C)C(=O)CNC(=O)[C@H](C)C1`: the GI50 in the test on A498 is < 0.0106 µM (active); in the test on A549 it was < 0.01 µM (active); in the test on ACHN, < 0.01 µM (active); in the test with CAKI-1 it was < 0.01 µM (active); in the test with CCRF-CEM, < 0.01 µM (active); in the test on DU-145 it was 0.363 µM (active). For the same molecule, the GI50 with EKVX is 0.117 µM (active); with HCC 2998 it was < 0.01 µM (active); in the test with Hs-578T, < 0.0136 µM (active); in the test with K562, < 0.01 µM (active); with M14 it was < 0.0202 µM (active); in the test with MDA-MB-231, < 0.01 µM (active). The GI50 in the test on Malme-3M was 0.0328 µM (active); with NCI-H522, < 0.01 µM (active); in the test on NCI/ADR-RES, 0.0366 µM (active); with OVCAR-8 it was 0.137 µM (active); with SF-295, 0.0114 µM (active); in the test on SN12C, 0.119 µM (active). Besides, in the test with SNB-75, the GI50 was < 0.01 µM (active).

Consider `Nc1nccc2c1ncn2[C@H]1C[C@H](O)[C@@H](CO)O1`, for which the GI50 in the test on A498, with CAKI-1, in the test on CCRF-CEM, with DU-145, in the test on HCC 2998 and in the test on Hs-578T was > 100 µM (inactive) each time. The GI50 in the test with K562, in the test with M14, with MDA-MB-231, in the test on Malme-3M, in the test on NCI-H226 and in the test on NCI/ADR-RES was > 100 µM (inactive) in each case. Besides, the GI50 in the test with OVCAR-8, in the test with SF-295, in the test on SN12C and in the test on SNB-75 was > 100 µM (inactive) each time.
